Columns and labels:
[1] = system: Ascaris suum antigen-induced asthmatic response in conscious sheep; experiment: Ascaris suum antigen-induced asthmatic response in conscious sheep: specific lung resistance and airway hyperreactivity; assay type: in vivo
Protocol: The efficacy of Compound 2 for the treatment of asthma was evaluated in a validated model of Ascaris suum antigen-induced asthmatic response in conscious sheep (Abraham, W. M., Pharmacology of allergen-induced early and late airway responses and antigen-induced airway hyperresponsiveness in allergic sheep, Pulmonary Pharmacology, 1989, 2, 33-40).
(§1) Baseline dose response curves to aerosol carbachol were obtained 1-3 days prior to antigen challenge. Baseline values of specific lung resistance (SRL) were obtained and the sheep were then given a specified amount (mg) of the test compound as an inhaled aerosol at a specified time before antigen challenge. Post drug measurements of SRL were obtained and the sheep were then challenged with Ascaris suum antigen. Measurements of SRL were obtained immediately after challenge, hourly from 1-6 h after challenge and on the half-hour from 6½-8 h after challenge. Measurements of SRL were obtained 24 h after challenge followed by a 24 h post-challenge with carbachol to measure airway hyperreactivity.
Compound 2 was administered as an aerosol at 0.1 mg/Kg/dose, twice-a-day (BID) for three consecutive days, followed by a dose on day 4, 0.5 h prior to antigen challenge. Ascaris suum antigen challenge was given at the zero time point.

[2] = system: inflammatory cell numbers in the broncho-alveolar lavage (BAL) fluid; experiment: Inflammatory cell counts in broncho-alveolar lavage (BAL) fluid of antigen-challenged sheep; assay type: in vivo
Protocol: as §1, with “hyperreactivity. […] Ascaris suum antigen challenge was given at the zero time point.” for “hyperreactivity.”

[3] = system: inflammatory cell numbers in the broncho-alveolar lavage (BAL) fluid; experiment: as above; assay type: in vivo; conditions: 1.0 mg/kg × 4 days, last dose 30 min prior to antigen challenge
[4] = biological target: T1, human neutrophil cathepsin G (Homo sapiens, UniProt P08311); experiment: Enzyme-catalyzed hydrolysis assay, cathepsin G (chromogenic substrate Suc-Ala-Ala-Pro-Phe-pNa); assay type: biochemical; conditions: 70 nM enzyme, 5 mM substrate, pH 7.4, 37° C., 30 minutes; read-out: IC50 (μM) CatG
T1 construct: human neutrophil cathepsin G (Athens Research and Technology); purchased Athens Research and Technology; host or cells: human neutrophils (from the enzyme's name)
T1 sequence (P08311 21-243 limits assumed): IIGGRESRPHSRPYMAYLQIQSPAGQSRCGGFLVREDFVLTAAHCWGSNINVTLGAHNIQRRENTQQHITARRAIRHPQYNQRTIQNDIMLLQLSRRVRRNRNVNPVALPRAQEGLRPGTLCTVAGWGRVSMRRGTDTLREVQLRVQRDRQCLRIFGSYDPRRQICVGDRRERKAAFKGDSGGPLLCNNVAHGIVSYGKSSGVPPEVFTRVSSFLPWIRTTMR
Protocol: (§2) Enzyme-catalyzed hydrolysis rates were measured spectrophotometrically using human neutrophil cathepsin G (Athens Research and Technology) or human skin chymase (Cortex Biochem), a chromogenic substrate (Suc-Ala-Ala-Pro-Phe-pNa) (Bachem) in aqueous buffer (100 mM Hepes, 500 mM NaCl, pH 7.4 for catG; 450 mM Tris, 1800 mM NaCl, pH 8.0 for chymase), and a microplate reader (Molecular Devices). […] Percent inhibition was calculated by comparing the initial reaction slopes of the samples without inhibitor to those with inhibitor. IC50 values were determined using a four parameter fit logistics model. The term “NT” indicates a compound that was not tested.

human skin chymase = biological target: T2, human skin chymase (Homo sapiens, UniProt P23946); experiment: Enzyme-catalyzed hydrolysis assay, chymase (chromogenic substrate Suc-Ala-Ala-Pro-Phe-pNa); assay type: biochemical; conditions: 10 nM enzyme, 0.7 mM substrate, pH 8.0, 37° C., 30 minutes
T2 construct: human skin chymase (Cortex Biochem); purchased Cortex Biochem; host or cells: human skin (from the enzyme's name)
T2 sequence (P23946 22-247): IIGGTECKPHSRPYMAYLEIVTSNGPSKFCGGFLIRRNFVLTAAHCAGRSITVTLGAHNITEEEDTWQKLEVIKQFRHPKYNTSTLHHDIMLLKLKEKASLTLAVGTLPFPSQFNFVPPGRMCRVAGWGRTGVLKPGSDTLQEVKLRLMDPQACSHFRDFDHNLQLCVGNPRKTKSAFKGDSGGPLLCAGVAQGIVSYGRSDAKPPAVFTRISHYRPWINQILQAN
Protocol: as §2

[5] = 8 h Post Antigen, 1.0 mg/kg × 4 days, last dose 30 min prior to antigen challenge
[6] = 24 h Post Antigen, 1.0 mg/kg × 4 days, last dose 30 min prior to antigen challenge
[7] = Baseline, 1.0 mg/kg × 4 days, last dose 30 min prior to antigen challenge

Compound | IC50 [4] [µM] | IC50 (human skin chymase) [µM] | also measured
CN(C(=O)c1cc2ccccc2cc1C(=O)C(c1cccc2ccccc12)P(=O)(O)O)C1CCN(C(=O)c2ccc3ccccc3c2)CC1 (stereo not shown) [Compound 2, [2-[3-[[methyl[1-(2-naphthalenylcarbonyl)-4-piperidinyl]amino]carbonyl]-2-naphthalenyl]-1-(1-naphthalenyl)-2-oxoethyl]-phosphonic acid] | – | – | early airway response (specific lung resistance, SRL) ([1]; 0-2 h after antigen challenge, aerosol 0.1 mg/Kg/dose BID for three days plus dose on day 4, 0.5 h prior to challenge, n=4 sheep/group, FIG. 1): dramatically reduced; late airway response (specific lung resistance, SRL) ([1]; 6-8 h after antigen challenge, aerosol 0.1 mg/Kg/dose BID for three days plus dose on day 4, 0.5 h prior to challenge, n=4 sheep/group, FIG. 1): completely blocked; delayed airway hyperreactivity measured using carbachol challenge (PC 400) ([1]; 24 h post antigen challenge, FIG. 2): completely blocked; BAL Cell Count Lymphocytes [2, 5]: 4.16 ± 1.10 × 1000/mL; BAL Cell Count Neutrophils [2, 5]: 3.17 ± 0.65 × 1000/mL; BAL Cell Count Lymphocytes [2, 6]: 3.72 ± 0.77 × 1000/mL; BAL Cell Count Macrophages [2, 6]: 75.16 ± 2.71 × 1000/mL; BAL Cell Count Eosinophils [2, 7]: 0.00 × 1000/mL; BAL Cell Count Macrophages [2, 7]: 69.06 ± 1.97 × 1000/mL; BAL Cell Count Neutrophils [2, 7]: 12.66 ± 2.07 × 1000/mL; rise in inflammatory cell numbers in the broncho-alveolar lavage (BAL) fluid ([2]; after antigen challenge, sheep, summary of Table 5): blocked; BAL Cell Count Eosinophils ([3]; 8 h Post Antigen): 0.37 ± 0.32 × 1000/mL; BAL Cell Count Macrophages ([3]; 8 h Post Antigen): 77.85 ± 2.36 × 1000/mL; BAL Cell Count Eosinophils ([3]; 24 h Post Antigen): 0.04 ± 0.03 × 1000/mL; BAL Cell Count Neutrophils ([3]; 24 h Post Antigen): 3.86 ± 0.95 × 1000/mL; BAL Cell Count Lymphocytes ([3]; Baseline): 3.15 ± 0.79 × 1000/mL
O=C(NC1CCN(C(=O)c2ccc3ccccc3c2)CC1)c1cc2ccccc2cc1C(=O)C(c1cccc2ccccc12)P(=O)(O)O (stereo not shown) [Compound 30, [1-(1-naphthalenyl)-2-[3-[[[1-(2-naphthalenylcarbonyl)-4-piperidinyl]amino]carbonyl]-2-naphthalenyl]-2-oxoethyl]-phosphonic acid] | 0.59 ± 0.04 | 0.0158 ± 0.0008 | –
CN(C(=O)c1ccccc1C(=O)C(c1cccc2ccccc12)P(=O)(O)O)C1CCN(C(=O)c2ccc3ccccc3c2)CC1 (stereo not shown) [Compound 31, [2-[2-[[methyl[1-(2-naphthalenylcarbonyl)-4-piperidinyl]amino]carbonyl]phenyl]-1-(1-naphthalenyl)-2-oxoethyl]-phosphonic acid] | > 100 | 15 ± 0.67 | –
CN(C(=O)c1cc2ccccc2cc1C(=O)C(c1cccc2ccccc12)P(C)(=O)O)C1CCN(C(=O)c2ccc3ccccc3c2)CC1 (stereo not shown) [Compound 32, methyl[2-[3-[[methyl[1-(2-naphthalenylcarbonyl)-4-piperidinyl]amino]carbonyl]-2-naphthalenyl]-1-(1-naphthalenyl)-2-oxoethyl]-phosphinic acid] | 0.86 ± 0.03 | 0.31 | –
CN(C(=O)c1cc2ccccc2cc1C(=O)C(c1csc2ccc(Cl)cc12)P(=O)(O)O)C1CCN(C(=O)c2ccc3ccccc3c2)CC1 (stereo not shown) [Compound 33, [1-(5-chlorobenzo[b]thien-3-yl)-2-[3-[[methyl[1-(2-naphthalenylcarbonyl)-4-piperidinyl]amino]carbonyl]-2-naphthalenyl]-2-oxoethyl]-phosphonic acid] | 0.121 ± 0.007 | 0.001 | –
O=C(NC1CCN(C(=O)c2cc3ccccc3cc2C(=O)C(c2cccc3ccccc23)P(=O)(O)O)CC1)c1ccc2ccccc2c1 (stereo not shown) [Compound 34] | 0.09 ± 0.04 | 0.007 ± 0.001 | –
[2-[3-[(cyclohexylmethylamino)carbonyl]-2-naphthalenyl]-1-(1-naphthalenyl)-2-oxoethyl]-phosphonic acid [Compound 17] | 0.098 ± 0.026 | 0.0072 ± 0.0015 | –
[2-[3-[(cyclopentylmethylamino)carbonyl]-2-naphthalenyl]-1-(1-naphthalenyl)-2-oxoethyl]-phosphonic acid [Compound 21] | 0.07 ± 0.02 | 0.0096 ± 0.0034 | –
[2-[3-[[(1-acetyl-4-piperidinyl)methylamino]carbonyl]-2-naphthalenyl]-1-(1-naphthalenyl)-2-oxoethyl]-phosphonic acid [Compound 26] | 0.096 ± 0.018 | 0.015 ± 0.001 | –
[2-[3-[[[1-[(2E)-3-(4-fluorophenyl)-1-oxo-2-propenyl]-3-pyrrolidinyl]methylamino]carbonyl]-2-naphthalenyl]-1-(1-naphthalenyl)-2-oxoethyl]-phosphonic acid [Compound 5] | 0.072 ± 0.021 | 0.2 ± 0.4 | –
[2-[3-[[[1-[(6-hydroxy-2-naphthalenyl)carbonyl]-4-piperidinyl]methylamino]carbonyl]-2-naphthalenyl]-1-(1-naphthalenyl)-2-oxoethyl]-phosphonic acid [Compound 24] | 0.078 ± 0.015 | 0.0035 ± 0.0013 | –
[2-[3-[[[1-[(6-methoxy-2-naphthalenyl)carbonyl]-3-pyrrolidinyl]methylamino]carbonyl]-2-naphthalenyl]-1-(1-naphthalenyl)-2-oxoethyl]-phosphonic acid [Compound 3] | 0.068 ± 0.019 | 0.072 ± 0.008 | –
[2-[3-[[[4-(1,1-dimethylethyl)cyclohexyl]methylamino]carbonyl]-2-naphthalenyl]-1-(1-naphthalenyl)-2-oxoethyl]-phosphonic acid [Compound 22] | 0.14 ± 0.04 | 0.009 ± 0.023 | –
